Assay results reported in patent US20260070929A1, “METHODS AND COMPOSITIONS FOR MODULATING KRAS(G12D)” (Ranok Therapeutics (Hangzhou) Co. LTD., priority 2022, published 2026).
pEC50, pIC50: −log10 of the molar value. Read-outs that look alike come from different tables or passages of the source.

Tests used:
[1] = molecular target: T1, KRAS(G12D)/SOS1 (Homo sapiens, UniProt P01116, G12D); assay: KRAS(G12D)/SOS1 homogeneous time-resolved fluorescence (HTRF) assay; type: binding; conditions: absence of GTP; 4° C., 3 hr
T1 construct: purchased Cisbio 63ADK000CB17PEH
Method in brief: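 HTRF kit assay of compound-blocked KRAS(G12D)–SOS1 interaction, run without GTP. Compounds were tested as 3-fold dilutions from 20 µM to 1.02 nM and incubated with the reaction components for 3 hr at 4 °C, sealed. IC50 was taken as the concentration giving 50% of maximal inhibition.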

[2] = system: A-427 lung carcinoma cells [heterozygous G12D]; assay: Cancer cell line proliferation (CellTiter-Glo), A-427; type: cell-based; conditions: Homo sapiens, A-427 cells, 72 hr treatment, read-out: A427 CTG (EC50)
Method in brief: (§1)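 Cells at 4,000/well grown 72 hr, then treated with 3-fold serial dilutions (20 μM to 1.02 nM, 0.5% DMSO final) for 72 hr at 37° C/5% CO2. Viability by CellTiter-Glo luminescence; EC50 values calculated.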

[3] = system: ASPC1 pancreatic adenocarcinoma cells [homozygous G12D]; assay: Cancer cell line proliferation (CellTiter-Glo), ASPC1; type: cell-based; conditions: 72 hr treatment, read-out: ASPC-1 CTG (EC50)
Protocol: The following cancer cell lines were employed: AGS gastric carcinoma [heterozygous G12D](ATCC, CRL-1739); A-427 lung carcinoma [heterozygous G12D](ATCC, HTB-53); ASPC1 pancreatic adenocarcinoma [homozygous G12D](ATCC, CRL-1682) and SW1990 pancreatic adenocarcinoma [homozygous G12D](ATCC CRL-2172). Cell lines were cultured essentially according to ATCC recommendations.
AGS, A-427, ASPC1, SW1990, and GP2D cells were plated in 96-well tissue culture plates at 4,000 cells/well and incubated at 37° C./5% CO2 for 72 hr in 100 μl of media. 3-fold serial dilutions of each test compound were prepared ranging from 20 μM to 1.02 nM. Each cell line was then treated with test compounds at various concentrations with a final concentration of 0.5% DMSO/well, and then incubated at 37° C./5% CO2 for 72 hr. 100 µl of CellTiter-Glo® Reagent (Promega Corporation, Madison, WI) was added to each well and processed according manufacturer's protocol. Results were analyzed and EC50 values were calculated in GraphPad 7 software.

[4] = system: AGS gastric carcinoma cells [heterozygous G12D]; assay: Cancer cell line proliferation (CellTiter-Glo), AGS; type: cell-based; conditions: Homo sapiens, 72 hr treatment, read-out: AGS CTG (EC50)
Method in brief: as §1

T1 sequence (P01116 1-188 isoform P01116-2 G12D): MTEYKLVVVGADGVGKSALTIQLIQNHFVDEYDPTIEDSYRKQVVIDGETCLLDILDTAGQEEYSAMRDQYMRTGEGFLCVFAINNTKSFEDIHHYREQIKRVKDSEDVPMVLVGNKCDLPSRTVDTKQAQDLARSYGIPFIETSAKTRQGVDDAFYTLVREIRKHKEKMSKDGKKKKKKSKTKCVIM

Structure (SMILES)	pIC50 [1]	pEC50 [2]	pEC50 ([3]; Homo sapiens, ASPC1, 72 h)	pEC50 [4]	pEC50 [3]
CC(C)c1cc(-c2nnc(O)n2-c2ccc(CN3CCC(C(=O)C4CCN([C@H]5C[C@@H](COc6nc(N7CC8CCC(C7)N8)c7cnc(-c8cc(O)cc9ccccc89)c(F)c7n6)N(C)C5)CC4)CC3)cc2)c(O)cc1O [Compound 32]	> 7.00	6.00 to 7.00	< 6.00	6.00 to 7.00	
Cc1cccc2cccc(-c3ncc4c(N5CC6CCC(C5)N6)nc(OC[C@@H]5C[C@H](N6CCN(Cc7ccc8c(c7)CN(C(=O)c7cc(C(C)C)c(O)cc7O)C8)CC6)CN5C)nc4c3F)c12 [Compound 37]	> 7.00	6.00 to 7.00		6.00 to 7.00	6.00 to 7.00
Cc1cccc2cccc(-c3ncc4c(N5CC6CCC(C5)N6)nc(OC[C@@H]5C[C@H](N6CCC(C(=O)N7CCN(Cc8ccc(-n9c(O)nnc9-c9cc(C(C)C)c(O)cc9O)cc8)CC7)CC6)CN5C)nc4c3F)c12 [Compound 23]	6.00 to 7.00	6.00 to 7.00	< 6.00	6.00 to 7.00	
C#Cc1cccc2cccc(-c3ncc4c(N5CC6CCC(C5)N6)nc(OCC5(CN6CCN(Cc7ccc(-n8c(O)nnc8-c8cc(C(C)C)c(O)cc8O)cc7)CC6)CC5)nc4c3F)c12 [Compound 10]	> 7.00	6.00 to 7.00	< 6.00	6.00 to 7.00	
C#Cc1cccc2cccc(-c3ncc4c(N5CC6CCC(C5)N6)nc(OCCN5CCN(C(=O)C6CCN(Cc7ccc(-n8c(C(=O)NCC)nnc8-c8cc(C(C)C)c(O)cc8O)cc7)CC6)CC5)nc4c3F)c12 [Compound 21]	6.00 to 7.00	6.00 to 7.00	< 6.00	> 7.00	
C#Cc1cccc2cccc(-c3ncc4c(N5CC6CCC(C5)N6)nc(OC[C@@H]5CC[C@H](CN6CCN(C(=O)C7CCN(Cc8ccc(-n9c(C(=O)NCC)nnc9-c9cc(C(C)C)c(O)cc9O)cc8)CC7)CC6)N5C)nc4c3F)c12 [Compound 28]	> 7.00	> 7.00	6.00 to 7.00	> 7.00	
C#Cc1cccc2cc(O)cc(-c3ncc4c(N5CC6CCC(C5)N6)nc(OCC5(CN6CC[C@H](C(=O)N7CCN(Cc8ccc9c(c8)CN(C(=O)c8cc(C(C)C)c(O)cc8O)C9)CC7)C6)CC5)nc4c3F)c12 [Compound 139]	> 7.00	6.00 to 7.00	< 6.00	6.00 to 7.00	
CNC(=O)c1nnc(-c2cc(C)c(O)cc2O)n1-c1ccc(CN2CCN(C(=O)C3CCN([C@H]4C[C@@H](COc5nc(C6CC7CCC(C6)N7)c6cnc(-c7cccc8cccc(Cl)c78)c(F)c6n5)N(C)C4)CC3)CC2)cc1 (some centres unmarked) [Compound 8]	> 7.00	< 6.00	< 6.00	< 6.00	
CCNC(=O)c1nnc(-c2cc(C(C)C)c(O)cc2O)n1-c1ccc(CN2CCN(C[C@H]3CC[C@@H](COc4nc(N5CC6CCC(C5)N6)c5cnc(-c6cccc7ccccc67)c(F)c5n4)N3C)CC2)cc1 [Compound 66]	6.00 to 7.00	> 7.00	6.00 to 7.00	> 7.00	
C#Cc1cccc2cccc(-c3ncc4c(N5CC6CCC(C5)N6)nc(OCCN5CCN(Cc6ccc(-n7c(C(=O)NCC)nnc7-c7cc(C(C)C)c(O)cc7O)cc6)CC5)nc4c3F)c12 [Compound 17]	> 7.00	> 7.00	6.00 to 7.00	> 7.00	
C#Cc1cccc2cccc(-c3ncc4c(N5CC6CCC(C5)N6)nc(OCCN5CCN(Cc6ccc7c(c6)CN(C(=O)c6cc(C(C)C)c(O)cc6O)C7)CC5)nc4c3F)c12 [Compound 14]	6.00 to 7.00	6.00 to 7.00	6.00 to 7.00	6.00 to 7.00	
C#Cc1cccc2cc(O)cc(-c3ncc4c(N5CC6CCC(C5)N6)nc(OCC5(CN6CCC(OC7CCN(Cc8ccc(-n9c(C(=O)NC(C)C(F)(F)F)nnc9-c9cc(C(C)C)c(O)cc9O)cc8)CC7)CC6)CC5)nc4c3F)c12 (centres unmarked) [Compound 140]	> 7.00	> 7.00	> 7.00	> 7.00	
CCNC(=O)c1nnc(-c2cc(C(C)C)c(O)cc2O)n1-c1ccc(CN2CCC(C(=O)N3CCN([C@H]4C[C@@H](COc5nc(N6CC7CCC(C6)N7)c6cnc(-c7cc(O)cc8ccccc78)c(F)c6n5)N(C)C4)CC3)CC2)cc1 [Compound 38]	> 7.00	6.00 to 7.00	6.00 to 7.00	6.00 to 7.00	
CC(C)c1cc(C(=O)N2Cc3ccc(CN(C)[C@H]4CN5CCC[C@]5(COc5nc(N6CC7CCC(C6)N7)c6cnc(-c7cc(O)cc8ccccc78)c(F)c6n5)C4)cc3C2)c(O)cc1O [Compound 45]	6.00 to 7.00	6.00 to 7.00	< 6.00	6.00 to 7.00	
C#Cc1cccc2cccc(-c3ncc4c(N5CC6CCC(C5)N6)nc(OC[C@@H]5CC[C@H](CN6CCN(Cc7ccc(-n8c(C(=O)NCC)nnc8-c8cc(C(C)C)c(O)cc8O)cc7)CC6)N5C)nc4c3F)c12 [Compound 16]	> 7.00	> 7.00	6.00 to 7.00	> 7.00	
C#Cc1cccc2cccc(-c3ncc4c(N5CC6CCC(C5)N6)nc(OCCN5CCN(C(=O)C6CCN(Cc7ccc(-n8c(O)nnc8-c8cc(C(C)C)c(O)cc8O)cc7)CC6)CC5)nc4c3F)c12 [Compound 20]	6.00 to 7.00	6.00 to 7.00	< 6.00	6.00 to 7.00	
C#Cc1cccc2cc(O)cc(-c3ncc4c(N5CC6CNC(C6)C5)nc(OCC5(CN6CCN(CC7CCN(Cc8ccc(-n9c(C(=O)NC(C)C(F)(F)F)nnc9-c9cc(C(C)C)c(O)cc9O)cc8)CC7)CC6)CC5)nc4c3F)c12 (centres unmarked) [Compound 134]	> 7.00	6.00 to 7.00	6.00 to 7.00	6.00 to 7.00	
CCNC(=O)c1nnc(-c2cc(C(C)C)c(O)cc2O)n1-c1ccc(CN2CCN(C(=O)C3CCN([C@H]4C[C@@H](COc5nc(N6CC7CCC(C6)N7)c6cnc(-c7cccc8cccc(Cl)c78)c(F)c6n5)N(C)C4)CC3)CC2)cc1 [Compound 6]	6.00 to 7.00	6.00 to 7.00	< 6.00	6.00 to 7.00	
CCNC(=O)c1nnc(-c2cc(C(C)C)c(O)cc2O)n1-c1ccc(CN2CCN([C@H]3C[C@@H](COc4nc(N5CC6CCC(C5)N6)c5cnc(-c6cccc7cccc(C#N)c67)c(F)c5n4)N(C)C3)CC2)cc1 [Compound 59]	< 6.00	6.00 to 7.00	6.00 to 7.00	> 7.00	
CCc1cc(-c2nnc(C(=O)NC)n2-c2ccc(CN3CCN(C(=O)C4CCN([C@H]5C[C@@H](COc6nc(C7CC8CCC(C7)N8)c7cnc(-c8cccc9cccc(Cl)c89)c(F)c7n6)N(C)C5)CC4)CC3)cc2)c(O)cc1O (some centres unmarked) [Compound 9]	6.00 to 7.00	< 6.00	< 6.00	6.00 to 7.00	
C#Cc1cccc2cccc(-c3ncc4c(N5CC6CCC(C5)N6)nc(OC[C@@H]5C[C@H](N6CCN(Cc7ccc(-n8c(C(=O)NCC)nnc8-c8cc(C(C)C)c(O)cc8O)cc7)CC6)CN5C)nc4c3F)c12 [Compound 36]	> 7.00	6.00 to 7.00	6.00 to 7.00	> 7.00	
Cc1cccc2cccc(-c3ncc4c(N5CC6CCC(C5)N6)nc(OC[C@@H]5C[C@H](N6CCN(Cc7ccc(-n8c(O)nnc8-c8cc(C(C)C)c(O)cc8O)cc7)CC6)CN5C)nc4c3F)c12 [Compound 22]	6.00 to 7.00	6.00 to 7.00	< 6.00	6.00 to 7.00	
C#Cc1cccc2cc(O)cc(-c3ncc4c(N5CC6CCC(C5)N6)nc(OCC5(CN6CCN(CC7CCN(c8ccc9c(c8)CN(C(=O)c8cc(C(C)C)c(O)cc8O)C9)CC7)CC6)CC5)nc4c3F)c12 [Compound 133]	> 7.00	6.00 to 7.00	6.00 to 7.00	6.00 to 7.00	
CC(C)c1cc(-c2nnc(C(=O)NC(C)C(F)(F)F)n2-c2ccc(CN3CCC(CN4CCN(CC5(COc6nc(N7CC8CCC(C7)N8)c7cnc(-c8cccc9ccccc89)c(F)c7n6)CC5)CC4)CC3)cc2)c(O)cc1O (centres unmarked) [Compound 137]	6.00 to 7.00	6.00 to 7.00	6.00 to 7.00	6.00 to 7.00	
CCNC(=O)c1nnc(-c2cc(C(C)C)c(O)cc2O)n1-c1ccc(CN2CCN([C@H]3C[C@@H](COc4nc(N5CC6CCC(C5)N6)c5cnc(-c6cccc7cccc(C)c67)c(F)c5n4)N(C)C3)CC2)cc1 [Compound 29]	6.00 to 7.00	> 7.00	6.00 to 7.00	> 7.00	
Cc1cccc(-c2ncc3c(N4CC5CCC(C4)N5)nc(OC[C@@H]4C[C@H](N5CCN(Cc6ccc(-n7c(O)nnc7-c7cc(C(C)C)c(O)cc7O)cc6)CC5)CN4C)nc3c2F)c1C [Compound 52]	< 6.00	6.00 to 7.00	< 6.00	6.00 to 7.00	
